Laboratory results taken from ChEMBL document CHEMBL1201862, “PubChem BioAssay data set” (2004).
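Results reflect a 48-hour exposure of cells in 96-well plates to compound at five concentrations. Abbreviation: GI50, concentration required for 50% inhibition of growth.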 Active and inactive are the calls of the source. Cut-off read from the data, not from the text of the source: active = GI50 up to about 1.1 µM and inactive = higher.

What was measured:
Test in all cases: DTP human tumour cell line panel, 48 h
NCI-H522 = system: NCI-H522
OVCAR-3 = system: OVCAR-3
HCT-116 = system: HCT-116
NCI-H23 = system: NCI-H23
MDA-MB-435 = system: MDA-MB-435
COLO 205 = system: COLO 205
IGROV-1 = system: IGROV-1
U-251 = system: U-251
HOP-92 = system: HOP-92
RPMI-8226 = system: RPMI-8226
HOP-62 = system: HOP-62
SK-MEL-28 = system: SK-MEL-28
NCI-H460 = system: NCI-H460
SK-MEL-5 = system: SK-MEL-5
RXF 393 = system: RXF 393
Malme-3M = system: Malme-3M
NCI-H226 = system: NCI-H226
PC-3 = system: PC-3
DU-145 = system: DU-145
Hs-578T = system: Hs-578T

Row | Structure (SMILES) | GI50 (NCI-H522) | GI50 (OVCAR-3) | GI50 (HCT-116) | GI50 (NCI-H23) | GI50 (MDA-MB-435) | GI50 (COLO 205) | GI50 (IGROV-1) | GI50 (U-251) | GI50 (HOP-92) | GI50 (RPMI-8226) | GI50 (HOP-62) | GI50 (SK-MEL-28) | GI50 (NCI-H460) | GI50 (SK-MEL-5) | GI50 (RXF 393) | GI50 (Malme-3M) | GI50 (NCI-H226) | GI50 (PC-3) | GI50 (DU-145) | GI50 (Hs-578T)
1 | COc1ccc(/C=C2/CSC/C(=C/c3ccc(OC)c(OC)c3)C2=O)cc1OC | 2.26 µM (inactive) | 2 µM (inactive) | 0.971 µM (active) | 2.3 µM (inactive) | 2.97 µM (inactive) | 2.24 µM (inactive) | 2.28 µM (inactive) | 1.01 µM (active) | 8.93 µM (inactive) | 0.472 µM (active) | 3.67 µM (inactive) | 2.94 µM (inactive) | 2.23 µM (inactive) | 2.44 µM (inactive) | 3.34 µM (inactive) | 4.71 µM (inactive) | 1.92 µM (inactive) | 3.03 µM (inactive) | 2.88 µM (inactive) | 
2 | O=C1C=C(O)c2nc(O)ccc2C1=O | > 100 µM (inactive) | > 100 µM (inactive) | > 100 µM (inactive) | > 100 µM (inactive) |  | > 100 µM (inactive) | > 100 µM (inactive) | > 100 µM (inactive) | > 100 µM (inactive) | > 100 µM (inactive) | > 100 µM (inactive) | > 100 µM (inactive) | > 100 µM (inactive) | > 100 µM (inactive) | > 100 µM (inactive) | > 100 µM (inactive) | > 100 µM (inactive) |  |  | 
3 | Cc1ccc(NC(=O)C(=O)C(C#N)c2ccccc2C)cc1C (stereo unspecified) | > 92.5 µM (inactive) | > 100 µM (inactive) | > 44.5 µM (inactive) | > 100 µM (inactive) |  | > 45.5 µM (inactive) | > 100 µM (inactive) | > 77.3 µM (inactive) | > 100 µM (inactive) | > 57.8 µM (inactive) | > 100 µM (inactive) | > 100 µM (inactive) | > 48.5 µM (inactive) | > 100 µM (inactive) | > 100 µM (inactive) | > 100 µM (inactive) | > 100 µM (inactive) |  |  | 
4 | O=C1C[C@H](c2ccc(O)c(O)c2)Oc2cc(O)cc(O)c21 | 11.6 µM (inactive) | > 100 µM (inactive) | > 100 µM (inactive) | > 100 µM (inactive) |  | > 100 µM (inactive) | > 100 µM (inactive) | 82.4 µM (inactive) | 56.8 µM (inactive) | > 100 µM (inactive) | > 100 µM (inactive) | 90.6 µM (inactive) | 72.4 µM (inactive) | > 100 µM (inactive) | > 100 µM (inactive) | 87.1 µM (inactive) | > 100 µM (inactive) |  |  | 
5 | COc1ccc(CC#C/C=C/C(=O)NCC(C)C)cc1 | > 100 µM (inactive) | > 100 µM (inactive) | > 100 µM (inactive) | > 100 µM (inactive) |  | > 100 µM (inactive) | > 100 µM (inactive) | > 100 µM (inactive) | > 100 µM (inactive) | > 100 µM (inactive) |  | > 100 µM (inactive) | > 100 µM (inactive) | > 100 µM (inactive) | 40.3 µM (inactive) | > 100 µM (inactive) | > 100 µM (inactive) |  |  | 
6 | CC(=O)OC1COC(N2C(=O)C(=O)c3ccccc32)C(OC(C)=O)C1OC(C)=O (stereo unspecified) | > 100 µM (inactive) | > 100 µM (inactive) |  | > 100 µM (inactive) |  | > 100 µM (inactive) | > 100 µM (inactive) | > 100 µM (inactive) | > 100 µM (inactive) | > 100 µM (inactive) | > 100 µM (inactive) | > 100 µM (inactive) | > 100 µM (inactive) | > 100 µM (inactive) | > 100 µM (inactive) | > 100 µM (inactive) | > 100 µM (inactive) |  |  | 
7 | CC1CC(=O)Nc2nc3ccccc3n21 (stereo unspecified) | > 100 µM (inactive) | > 100 µM (inactive) | > 100 µM (inactive) | > 100 µM (inactive) | > 100 µM (inactive) | > 100 µM (inactive) | > 100 µM (inactive) | > 100 µM (inactive) | > 100 µM (inactive) | > 100 µM (inactive) | > 100 µM (inactive) |  | > 100 µM (inactive) | > 100 µM (inactive) | > 100 µM (inactive) | > 100 µM (inactive) | > 100 µM (inactive) | > 100 µM (inactive) |  | > 100 µM (inactive)
8 | CCS/C(=N\c1ccccc1)SC | > 100 µM (inactive) | > 100 µM (inactive) | > 100 µM (inactive) | > 100 µM (inactive) |  | > 100 µM (inactive) | > 100 µM (inactive) | > 100 µM (inactive) | > 100 µM (inactive) | > 100 µM (inactive) | > 100 µM (inactive) | > 100 µM (inactive) | > 100 µM (inactive) | > 100 µM (inactive) | > 100 µM (inactive) | > 100 µM (inactive) | > 100 µM (inactive) |  |  | 
9 | c1ccc(P2c3ccccc3Nc3ccccc32)cc1 | 62.5 µM (inactive) | 16.3 µM (inactive) | 38.6 µM (inactive) | 72.9 µM (inactive) | > 100 µM (inactive) | 32.7 µM (inactive) | 71 µM (inactive) | 56.1 µM (inactive) | 30.1 µM (inactive) |  | 64.9 µM (inactive) | > 100 µM (inactive) | 62.1 µM (inactive) | 30.8 µM (inactive) | 29.5 µM (inactive) | 49.3 µM (inactive) | 99.5 µM (inactive) | 30 µM (inactive) | 78 µM (inactive) | 
10 | O=C1OS2(OCc3cccc4cccc2c34)c2ccccc21 (stereo unspecified) | 50.8 µM (inactive) | > 100 µM (inactive) | > 100 µM (inactive) | > 100 µM (inactive) | > 100 µM (inactive) | > 100 µM (inactive) | > 100 µM (inactive) | > 100 µM (inactive) | > 100 µM (inactive) | > 100 µM (inactive) | > 100 µM (inactive) | > 100 µM (inactive) | > 100 µM (inactive) | > 100 µM (inactive) |  | > 100 µM (inactive) | > 100 µM (inactive) | > 100 µM (inactive) | > 100 µM (inactive) | 
11 | N#CC(/C(CCCC(=O)Nc1cccc([N+](=O)[O-])c1)=N/NC(=O)c1cc2ccccc2cc1O)c1ccccc1 (stereo unspecified) | 23.1 µM (inactive) | 25.8 µM (inactive) | 35.6 µM (inactive) | 20 µM (inactive) |  | 23.6 µM (inactive) | 17.1 µM (inactive) | 34.6 µM (inactive) | 29.8 µM (inactive) | 35.4 µM (inactive) | 60.7 µM (inactive) | > 100 µM (inactive) | 21.2 µM (inactive) | 21.2 µM (inactive) | 5.07 µM (inactive) | 67.1 µM (inactive) | > 100 µM (inactive) |  |  | 
12 | Cn1nc(C(=O)N2CC(CCl)c3c2cc([N+](=O)[O-])c2ccccc32)cc1NC(=O)Nc1cc(C(=O)N2CC(CCl)c3c2cc([N+](=O)[O-])c2ccccc32)nn1C (stereo unspecified) | > 100 µM (inactive) | > 100 µM (inactive) | > 100 µM (inactive) | > 100 µM (inactive) | > 100 µM (inactive) | > 100 µM (inactive) |  | 68.9 µM (inactive) | > 100 µM (inactive) | > 100 µM (inactive) | 32.1 µM (inactive) | > 100 µM (inactive) | > 100 µM (inactive) | > 100 µM (inactive) |  | > 100 µM (inactive) | > 100 µM (inactive) | > 100 µM (inactive) | > 100 µM (inactive) | 
13 | COC(=O)N/N=C/c1oc(-c2ccccc2)c(-c2ccccc2)c1[N+](=O)[O-] | > 100 µM (inactive) | > 100 µM (inactive) | > 100 µM (inactive) | > 100 µM (inactive) |  | > 100 µM (inactive) | > 100 µM (inactive) | > 100 µM (inactive) | > 100 µM (inactive) | > 100 µM (inactive) | > 100 µM (inactive) | > 100 µM (inactive) | > 100 µM (inactive) | > 100 µM (inactive) | > 100 µM (inactive) | > 100 µM (inactive) | > 100 µM (inactive) |  |  | 
14 | COc1cc(OC)cc(-c2nc3cc(F)ccc3s2)c1 | 19 µM (inactive) | 26.2 µM (inactive) | 13.6 µM (inactive) | 12.9 µM (inactive) | > 100 µM (inactive) | 34.1 µM (inactive) | 12.3 µM (inactive) | 15.1 µM (inactive) |  | > 100 µM (inactive) |  |  | 21.8 µM (inactive) | > 100 µM (inactive) | 17 µM (inactive) | 55 µM (inactive) | 13.7 µM (inactive) | 39.5 µM (inactive) | 26.1 µM (inactive) | 
15 | COc1cc(C2c3cc4c(cc3[C@@H](Nc3ccc(F)cc3)C3CO[C@@H](O)[C@H]23)OCO4)cc(OC)c1O (stereo partly specified) | 3.16 µM (inactive) |  | 3.72 µM (inactive) |  | 12.3 µM (inactive) | 5.78 µM (inactive) | 7.62 µM (inactive) | 1.69 µM (inactive) |  | 2.26 µM (inactive) | 5.07 µM (inactive) | 7.85 µM (inactive) | 0.169 µM (active) | 6.18 µM (inactive) |  |  |  | 3.61 µM (inactive) |  | 0.697 µM (active)
16 | COC1=CC(C2c3cc4c(cc3[C@@H](Nc3ccc([N+](=O)[O-])cc3)C3COC(=O)[C@H]23)OCO4)=CC(=O)C1=O (stereo partly specified) | 2.58 µM (inactive) | 14.2 µM (inactive) | 6.64 µM (inactive) | 1.64 µM (inactive) |  | 21.4 µM (inactive) | 13 µM (inactive) | 1.35 µM (inactive) | 1.52 µM (inactive) | 2.43 µM (inactive) | 0.646 µM (active) | 14.8 µM (inactive) | 0.277 µM (active) | 3.48 µM (inactive) | 17.9 µM (inactive) | 4.46 µM (inactive) | 1.64 µM (inactive) |  |  | 
